Results taken from patent US9133228B2, “Guanidinyl-substituted polyamides useful for treating human papilloma virus” (Nanovir, LLC, priority 2011, dated 2015).

What was measured:
Assay type in all cases: cell-based, Human papilloma virus
[1] = system: HPV16; test: Inhibition of viral replication in cells that maintain HPV16 DNA, viral DNA quantified by real-time PCR
Source text: (§1) Table 1a lists a number of exemplary polyamides synthesized in accordance with the present invention. The HPLC/MW values given in Table 1b were obtained using low resolution high pressure liquid chromatography/mass spectrometry (LR HPLC/MS), which provides moderate precision masses of single isotopomers rather than average molecular weights or exact masses. Table 2 presents a summary of measured IC50 values of certain of these polyamides against HPV16, HPV18 and HPV31. The IC50 is the concentration of compound required for 50% inhibition of viral replication in vitro. The polyamides were tested in cells that maintain HPV16, HPV18 or HPV31 DNA. Cells maintaining the selected HPV were cultured for 72 hours in the presence of the polyamide. Viral DNA was then quantified using real-time PCR and compared to vehicle (DMSO)-treated control cultures. […] Table 3 presents a summary of measured IC50 and IC90 values of certain of these polyamides against HPV16, HPV18 and HPV31.

[2] = system: HPV31; test: Inhibition of viral replication in cells that maintain HPV31 DNA, viral DNA quantified by real-time PCR
Source text: as §1

[3] = system: HPV18; test: Inhibition of viral replication in cells that maintain HPV18 DNA, viral DNA quantified by real-time PCR
Source text: as §1

[4] = cells maintaining HPV16 cultured 72 hours with polyamide, vs DMSO control, highest dose tested 10 μM
[5] = cells maintaining HPV31 cultured 72 hours with polyamide, vs DMSO control, highest dose tested 10 μM
[6] = cells maintaining HPV18 cultured 72 hours with polyamide, vs DMSO control, highest dose tested 10 μM

Compound	IC50 [1, 4] [nM]	IC50 [2, 5] [nM]	IC50 [3, 6] [nM]	IC50 ([1]; Table 3, 72 hours) [nM]	IC90 ([1]; Table 3, 72 hours) [nM]	IC50 ([2]; Table 3, 72 hours) [nM]	IC90 ([2]; Table 3, 72 hours) [µM]	IC50 ([3]; Table 3, 72 hours) [nM]	IC90 ([3]; Table 3, 72 hours) [µM]
CN(CCCN)CCCNC(=O)CCNC(=O)c1cc(NC(=O)c2cc(NC(=O)c3cc(NC(=O)CCNC(=O)c4cc(NC(=O)c5cc(NC(=O)c6cc(NC(=O)CCNC(=O)c7cc(NC(=O)c8cc(NC(=O)CCCNC(=O)c9cc(NC(=O)c%10cc(NC(=O)CCNC(=O)c%11nc(NC(=O)c%12cc(NC(=O)c%13cc(NC(=O)CCNC(=O)c%14cc(NC(=O)c%15cc(N=C(N(C)C)N(C)C)cn%15C)cn%14C)cn%13C)cn%12C)cn%11C)cn%10C)cn9C)cn8C)cn7C)cn6C)cn5C)cn4C)cn3C)cn2C)cn1C [NV1085, TMG-PyPyβPyPyImβPyPy-γ-PyPyβPyPyPyβPyPyPyβ-Ta•4TFA]	29	32	41						
CN(C)CCCNC(=O)CCNC(=O)c1cc(NC(=O)CCNC(=O)c2cc(NC(=O)c3cc(NC(=O)c4cc(NC(=O)CCNC(=O)c5cc(NC(=O)c6cc(NC(=O)CCNC(=O)c7cc(NC(=O)CCCNC(=O)c8nc(NC(=O)c9cc(NC(=O)CCNC(=O)c%10cc(NC(=O)c%11cc(NC(=O)CCNC(=O)c%12cc(NC(=O)c%13cc(N=C(N(C)C)N(C)C)cn%13C)cn%12C)cn%11C)cn%10C)cn9C)cn8C)cn7C)cn6C)cn5C)cn4C)cn3C)cn2C)cn1C [NV1089, TMG-PyPyβPyPyβPyIm-γ-PyβPyPyβPyPyPyβPyβ-Dp•3TFA]	68	46	68						
TMG-PyPyβPyPyβ-γNH2-PyPyPyβPyPyPyβPyβ-Ta•4TFA [NV1095]	204	49	> 10000						
CN(CCCN)CCCNC(=O)CCNC(=O)c1cc(NC(=O)CCNC(=O)c2cc(NC(=O)c3cc(NC(=O)c4cc(NC(=O)CCNC(=O)c5cc(NC(=O)c6cc(NC(=O)c7cc(NC(=O)CCCNC(=O)c8cc(NC(=O)CCNC(=O)c9cc(NC(=O)c%10cc(NC(=O)CCNC(=O)c%11cc(NC(=O)c%12cc(N=C(N(C)C)N(C)C)cn%12C)cn%11C)cn%10C)cn9C)cn8C)cn7C)cn6C)cn5C)cn4C)cn3C)cn2C)cn1C [NV1097, TMG-PyPyβPyPyβPy-γ-PyPyPyβPyPyPyβPyβ-Ta•3TFA]	70	40	257	70	1410	40	10	257	> 10
CN(CCCN)CCCNC(=O)CCNC(=O)c1cc(NC(=O)CCNC(=O)c2cc(NC(=O)c3cc(NC(=O)c4cc(NC(=O)CCNC(=O)c5cc(NC(=O)c6cc(NC(=O)c7cc(NC(=O)[C@H](N)CCNC(=O)c8cc(NC(=O)CCNC(=O)c9cc(NC(=O)c%10cc(NC(=O)CCNC(=O)c%11cc(NC(=O)c%12cc(NC(=O)c%13cc(N=C(N(C)C)N(C)C)cn%13C)cn%12C)cn%11C)cn%10C)cn9C)cn8C)cn7C)cn6C)cn5C)cn4C)cn3C)cn2C)cn1C [NV1076, TMG-PyPyPyβPyPyβPy-γNH2-PyPyPyβPyPyPyβPyβ-Ta]	67	104	48						
CN(CCCN)CCCNC(=O)CCNC(=O)c1cc(NC(=O)c2cc(NC(=O)c3cc(NC(=O)CCNC(=O)c4cc(NC(=O)c5cc(NC(=O)c6cc(NC(=O)CCNC(=O)c7cc(NC(=O)c8cc(NC(=O)CCCNC(=O)c9cc(NC(=O)c%10cc(NC(=O)CCNC(=O)c%11nc(NC(=O)c%12cc(NC(=O)c%13cc(NC(=O)CCNC(=O)c%14cc(N=C(N(C)C)N(C)C)cn%14C)cn%13C)cn%12C)cn%11C)cn%10C)cn9C)cn8C)cn7C)cn6C)cn5C)cn4C)cn3C)cn2C)cn1C [NV1078, TMG-PyβPyPyImβPyPy-γ-PyPyβPyPyPyβPyPyPyβ-Ta•4TFA]	32	35	27						
CN(CCCN)CCCNC(=O)CCNC(=O)c1cc(NC(=O)CCNC(=O)c2cc(NC(=O)c3cc(NC(=O)c4cc(NC(=O)CCNC(=O)c5cc(NC(=O)c6cc(NC(=O)CCNC(=O)c7cc(NC(=O)CCCNC(=O)c8nc(NC(=O)c9cc(NC(=O)CCNC(=O)c%10cc(NC(=O)c%11cc(NC(=O)CCNC(=O)c%12cc(NC(=O)c%13cc(N=C(N(C)C)N(C)C)cn%13C)cn%12C)cn%11C)cn%10C)cn9C)cn8C)cn7C)cn6C)cn5C)cn4C)cn3C)cn2C)cn1C [NV1090, TMG-PyPyβPyPyβPyIm-γ-PyβPyPyβPyPyPyβPyβ-Ta•4TFA]	51	22	53						
CN(C)CCCNC(=O)CCNC(=O)c1cc(NC(=O)CCNC(=O)c2cc(NC(=O)c3cc(NC(=O)c4cc(NC(=O)CCNC(=O)c5cc(NC(=O)c6cc(NC(=O)c7cc(NC(=O)[C@@H](CCNC(=O)c8cc(NC(=O)CCNC(=O)c9cc(NC(=O)c%10cc(NC(=O)CCNC(=O)c%11cc(NC(=O)c%12cc(NC(=O)c%13cc(N=C(N(C)C)N(C)C)cn%13C)cn%12C)cn%11C)cn%10C)cn9C)cn8C)NC(=O)NCCCN(C)C)cn7C)cn6C)cn5C)cn4C)cn3C)cn2C)cn1C [NV1079, TMG-PyPyPyβPyPyβPy-γNHR″-PyPyPyβPyPyPyβPyβ-Dp•3TFA]	42	37	17						
CN(C)CCCNC(=O)CCNC(=O)c1cc(NC(=O)c2cc(NC(=O)c3cc(NC(=O)c4cc(NC(=O)CCNC(=O)c5cc(NC(=O)c6cc(NC(=O)CCCNC(=O)c7cc(NC(=O)c8cc(NC(=O)c9cc(NC(=O)CCNC(=O)c%10cc(NC(=O)c%11cc(N=C(N(C)C)N(C)C)cn%11C)cn%10C)cn9C)cn8C)cn7C)cn6C)cn5C)cn4C)cn3C)cn2C)cn1C [NV1083, TMG-PyPyβPyPyPy-γ-PyPyβPyPyPyPyβ-Dp•2TFA]	2410	3080	929						
CN(C)CCCNC(=O)CCNC(=O)c1cc(NC(=O)c2cc(NC(=O)c3cc(NC(=O)c4cc(NC(=O)CCNC(=O)c5cc(NC(=O)c6cc(NC(=O)CCCNC(=O)c7cc(NC(=O)c8cc(NC(=O)c9cc(NC(=O)CCNC(=O)c%10cc(N=C(N(C)C)N(C)C)cn%10C)cn9C)cn8C)cn7C)cn6C)cn5C)cn4C)cn3C)cn2C)cn1C [NV1081, TMG-PyβPyPyPy-γ-PyPyβPyPyPyPyβ-Dp•2TFA]	> 10000	> 10000	> 10000						
CN(C)CCCNC(=O)CCNC(=O)c1cc(NC(=O)CCNC(=O)c2cc(NC(=O)c3cc(NC(=O)c4cc(NC(=O)CCNC(=O)c5cc(NC(=O)c6cc(NC(=O)c7cc(NC(=O)[C@H](N)CCNC(=O)c8cc(NC(=O)CCNC(=O)c9cc(NC(=O)c%10cc(NC(=O)CCNC(=O)c%11cc(NC(=O)c%12cc(NC(=O)c%13cc(N=C(N(C)C)N(C)C)cn%13C)cn%12C)cn%11C)cn%10C)cn9C)cn8C)cn7C)cn6C)cn5C)cn4C)cn3C)cn2C)cn1C [NV1077, TMG-PyPyPyβPyPyβPy-γNH2-PyPyPyβPyPyPyβPyβ-Dp]	95	32	15						
CN(CCCN)CCCNC(=O)CCNC(=O)c1cc(NC(=O)c2cc(NC(=O)c3cc(NC(=O)c4cc(NC(=O)CCNC(=O)c5cc(NC(=O)c6cc(NC(=O)CCCNC(=O)c7cc(NC(=O)c8cc(NC(=O)c9cc(NC(=O)CCNC(=O)c%10cc(N=C(N(C)C)N(C)C)cn%10C)cn9C)cn8C)cn7C)cn6C)cn5C)cn4C)cn3C)cn2C)cn1C [NV1082, TMG-PyβPyPyPy-γ-PyPyβPyPyPyPyβ-Ta•3TFA]	> 10000	> 10000	> 10000						
CN(C)CCCNC(=O)CCNC(=O)c1cc(NC(=O)CCNC(=O)c2cc(NC(=O)c3cc(NC(=O)c4cc(NC(=O)CCNC(=O)c5cc(NC(=O)c6cc(NC(=O)CCNC(=O)c7cc(NC(=O)[C@H](N)CCNC(=O)c8nc(NC(=O)c9cc(NC(=O)CCNC(=O)c%10cc(NC(=O)c%11cc(NC(=O)CCNC(=O)c%12cc(NC(=O)c%13cc(NC(=O)c%14cc(N=C(N(C)C)N(C)C)cn%14C)cn%13C)cn%12C)cn%11C)cn%10C)cn9C)cn8C)cn7C)cn6C)cn5C)cn4C)cn3C)cn2C)cn1C [NV1075, TMG-PyPyPyβPyPyβPyIm-γNH2-PyβPyPyβPyPyPyβPyβ-Dp•4TFA]	124	56	49						
CN(C)CCCNC(=O)CCNC(=O)c1cc(NC(=O)c2cc(NC(=O)c3cc(NC(=O)CCNC(=O)c4cc(NC(=O)c5cc(NC(=O)c6cc(NC(=O)CCNC(=O)c7cc(NC(=O)c8cc(NC(=O)CCCNC(=O)c9cc(NC(=O)c%10cc(NC(=O)CCNC(=O)c%11nc(NC(=O)c%12cc(NC(=O)c%13cc(NC(=O)CCNC(=O)c%14cc(NC(=O)c%15cc(N=C(N(C)C)N(C)C)cn%15C)cn%14C)cn%13C)cn%12C)cn%11C)cn%10C)cn9C)cn8C)cn7C)cn6C)cn5C)cn4C)cn3C)cn2C)cn1C [NV1086, TMG-PyPyβPyPyImβPyPy-γ-PyPyβPyPyPyβPyPyPyβ-Dp•3TFA]	43	16	62						
CN(CCCN)CCCNC(=O)CCNC(=O)c1cc(NC(=O)CCNC(=O)c2cc(NC(=O)c3cc(NC(=O)c4cc(NC(=O)CCNC(=O)c5cc(NC(=O)c6cc(NC(=O)c7cc(NC(=O)CCCNC(=O)c8cc(NC(=O)CCNC(=O)c9cc(NC(=O)c%10cc(NC(=O)CCNC(=O)c%11cc(NC(=O)c%12cc(NC(=O)c%13cc(N=C(N(C)C)N(C)C)cn%13C)cn%12C)cn%11C)cn%10C)cn9C)cn8C)cn7C)cn6C)cn5C)cn4C)cn3C)cn2C)cn1C [NV1098, TMG-PyPyPyβPyPyβPy-γ-PyPyPyβPyPyPyβPyβ-Ta•3TFA]	11	24	17	11	1360	24	0.549	17	> 10
